The results in this text go back to ChEMBL document CHEMBL1201862, “PubChem BioAssay data set” (2004).

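1) Cells in 96-well plates. 2) Compound, 48 h, 5 concentrations. 3) Linear interpolation between surrounding doses. 4) Unreached endpoint = highest concentration. Abbreviation: GI50, concentration required for 50% inhibition of growth.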 Activity calls are given as the source filed them. Rule as the data show it: active = GI50 up to about 1.1 µM and inactive = higher. Where only a bound is given, the exact number is not on record here.

Some test systems named below: A549; ACHN; CAKI-1; COLO 205; HL-60; HOP-62; HT-29; KM12; LOX IMVI; M14; MOLT-4; Malme-3M; OVCAR-3; RXF 393; SK-MEL-28; SR; T47D; NCI-H226.
What all share (assay): NCI anticancer screen, dose series, 48 h

As to `S=C(N/N=C/c1ccccn1)N1CCCCC1`, the GI50 was < 0.0129 µM (active) in the assay with A549; < 0.01 µM (active) in the assay on ACHN; < 0.0153 µM (active) in the assay on CAKI-1; < 0.01 µM (active) in the assay on COLO 205; < 0.01 µM (active) in the assay with HL-60; < 0.01 µM (active) with HOP-62. Besides, the GI50 in the assay on HT-29 was < 0.01 µM (active); with KM12 it was < 0.0262 µM (active); in the assay with LOX IMVI, < 0.01 µM (active); with M14, < 0.01 µM (active); with MOLT-4, < 0.01 µM (active); with Malme-3M it was < 0.0397 µM (active). The GI50 is < 0.01 µM (active) in the assay on OVCAR-3; 0.0705 µM (active) with RXF 393; 0.297 µM (active) in the assay on SK-MEL-28; < 0.01 µM (active) in the assay on SR; < 0.01 µM (active) in the assay on T47D.

`Clc1ccc(OCc2nnc(COc3ccc(OCc4nnc(COc5ccc(Cl)cc5Cl)o4)c(Cl)c3)o2)c(Cl)c1`: the GI50 in the assay on A549 is 32 µM (inactive); in the assay on ACHN it was 40.6 µM (inactive); in the assay with CAKI-1 it was 24.8 µM (inactive); in the assay with COLO 205 it was 24.4 µM (inactive); in the assay with HL-60, 23.1 µM (inactive); with HOP-62 it was 51.6 µM (inactive). Also, the GI50 in the assay with HT-29 is 27.4 µM (inactive); in the assay on KM12 it was 45.7 µM (inactive); in the assay with LOX IMVI, 17.3 µM (inactive); in the assay with M14, 76.4 µM (inactive); in the assay on Malme-3M, 37.6 µM (inactive); in the assay on NCI-H226 it was 36.2 µM (inactive). The GI50 with OVCAR-3 was 25.2 µM (inactive); in the assay on RXF 393, 20.1 µM (inactive); in the assay on SK-MEL-28, 46.5 µM (inactive); in the assay with SR, 20.9 µM (inactive); with T47D it was 78.3 µM (inactive).

As for `Cc1cc(S(=O)(=O)Nc2nc3ccccc3n2-c2ccccc2)c(S)cc1Cl`, the GI50 in the assay on A549, with ACHN, with CAKI-1, in the assay on COLO 205, in the assay with HL-60 and in the assay with KM12 was > 100 µM (inactive) throughout. Further, the GI50 in the assay with LOX IMVI, with M14, in the assay on MOLT-4, in the assay on Malme-3M, in the assay on NCI-H226 and in the assay with OVCAR-3 was > 100 µM (inactive) in each case. The GI50 with RXF 393 is > 100 µM (inactive); with SK-MEL-28, > 100 µM (inactive); with SR, 69.7 µM (inactive); with T47D, 9.12 µM (inactive).

As to `C/C(=N\Nc1nc2ccccc2n1C)c1cnccn1`, the GI50 in the assay on A549 is 0.218 µM (active); with ACHN it was 0.065 µM (active); in the assay on CAKI-1 it was 0.0348 µM (active); in the assay on COLO 205, < 0.0139 µM (active); in the assay on HL-60 it was 0.0178 µM (active); with HOP-62, 0.537 µM (active). Moreover, the GI50 in the assay on HT-29 is 0.0418 µM (active); in the assay on KM12, 0.824 µM (active); in the assay with LOX IMVI, 0.129 µM (active); in the assay with M14 it was 0.064 µM (active); in the assay with MOLT-4 it was < 0.0261 µM (active); in the assay on Malme-3M, 0.065 µM (active). Further, the GI50 in the assay on NCI-H226 is 0.256 µM (active); in the assay with OVCAR-3 it was 0.0326 µM (active); with RXF 393, 1.23 µM (inactive); in the assay on SK-MEL-28, 0.565 µM (active); in the assay with SR, 0.0649 µM (active); in the assay with T47D, 0.0702 µM (active).

For the compound `N#C/C(=C\n1ccc(=O)[nH]c1=S)C(N)=O`, the GI50 in the assay on A549, with ACHN, with CAKI-1, in the assay with COLO 205, in the assay with HL-60 and with HOP-62 was > 100 µM (inactive) each time. Also, the GI50 in the assay with HT-29, in the assay with KM12, in the assay with LOX IMVI, in the assay on M14, with MOLT-4 and in the assay with Malme-3M was > 100 µM (inactive) throughout. Further, the GI50 with NCI-H226 is > 100 µM (inactive); in the assay on OVCAR-3, < 0.01 µM (active); in the assay on RXF 393, > 100 µM (inactive); in the assay on SK-MEL-28, > 100 µM (inactive); in the assay with SR it was > 100 µM (inactive); in the assay with T47D it was > 100 µM (inactive).

Take `N#C/C(=C\c1cccc(Br)c1)c1nc2ccccc2c(=O)[nH]1`: the GI50 with A549 is > 100 µM (inactive); with ACHN, 54.7 µM (inactive); with CAKI-1, > 100 µM (inactive); in the assay with COLO 205, > 100 µM (inactive); with HL-60, > 100 µM (inactive); with HOP-62, 21.9 µM (inactive). Further, the GI50 in the assay with HT-29, in the assay on KM12, in the assay on LOX IMVI, in the assay with M14, in the assay with MOLT-4 and with Malme-3M was > 100 µM (inactive) throughout. Also, the GI50 with NCI-H226 was > 100 µM (inactive); with RXF 393, > 100 µM (inactive); in the assay on SK-MEL-28, > 100 µM (inactive); in the assay with SR, 92.9 µM (inactive); in the assay on T47D, > 100 µM (inactive).

In the case of `CC(=O)O[C@H]1CC[C@H]2[C@@H]3CCC4=C(C(=O)C=CC4(C)OC(C)=O)[C@H]3CC[C@]12C` (some centres not stated), the GI50 with A549 was 90.2 µM (inactive); in the assay with ACHN, 54 µM (inactive); in the assay with CAKI-1 it was > 100 µM (inactive); in the assay with HL-60, 27.3 µM (inactive); with HOP-62 it was > 100 µM (inactive); with HT-29, 46.6 µM (inactive). Further, the GI50 in the assay with KM12 is 29.1 µM (inactive); in the assay on LOX IMVI, 38.1 µM (inactive); in the assay on M14, 46.8 µM (inactive); in the assay with MOLT-4, 33.9 µM (inactive); in the assay on Malme-3M, > 100 µM (inactive); with NCI-H226, > 100 µM (inactive). Further, the GI50 in the assay on OVCAR-3 was 47.6 µM (inactive); in the assay on RXF 393, 32.1 µM (inactive); in the assay on SK-MEL-28 it was > 100 µM (inactive); in the assay with SR it was 47.3 µM (inactive); in the assay with T47D, > 100 µM (inactive).

As for `O=C1C=C2CO[C@H]3OC[C@H](O)[C@@H]1[C@@H]23`, the GI50 with A549 was > 100 µM (inactive); in the assay on ACHN, > 100 µM (inactive); in the assay on CAKI-1 it was 29 µM (inactive); in the assay on COLO 205, 16.4 µM (inactive); in the assay on HL-60, 23.6 µM (inactive); in the assay with HOP-62 it was > 100 µM (inactive). Moreover, the GI50 in the assay on HT-29 was > 100 µM (inactive); in the assay with KM12, > 100 µM (inactive); with LOX IMVI it was 32.7 µM (inactive); with M14, > 100 µM (inactive); with MOLT-4, 28.9 µM (inactive); with Malme-3M, 21.6 µM (inactive). Besides, the GI50 with OVCAR-3 is > 100 µM (inactive); in the assay with RXF 393, 19.9 µM (inactive); in the assay with SK-MEL-28, 33.6 µM (inactive); in the assay on SR, 22.6 µM (inactive); in the assay on T47D, 25.5 µM (inactive).

Take `COC1CC2CCC(C)[C@](O)(O2)C(=O)C(=O)N2CCCCC2C(=O)OC(C(C)CC2CCC(O)C(OC)C2)CC(=O)C(C)C=C(C)C(OC(=O)CN(C)C)C(OC)C(=O)C(C)CC(C)/C=C/C=C/C=C\1C` (some centres not stated): the GI50 in the assay with A549 was 11 µM (inactive); in the assay with ACHN, 0.0101 µM (active); with COLO 205, 11.3 µM (inactive); with HL-60, 2 µM (inactive); with HOP-62 it was < 0.01 µM (active); in the assay with HT-29, 3.81 µM (inactive). The GI50 in the assay on KM12 is 9.59 µM (inactive); in the assay on LOX IMVI it was < 0.01 µM (active); with M14, 7.43 µM (inactive); with MOLT-4 it was < 0.01 µM (active); in the assay with Malme-3M, < 0.01 µM (active); with NCI-H226, 10.3 µM (inactive). Moreover, the GI50 is 9.79 µM (inactive) with OVCAR-3; < 0.01 µM (active) with RXF 393; 0.973 µM (active) with SK-MEL-28; < 0.01 µM (active) in the assay with SR; < 0.01 µM (active) in the assay on T47D.

Turning to `c1ccc(CCN2CCN=C2Cc2ccccc2)cc1`, the GI50 was > 100 µM (inactive) in the assay with A549; > 100 µM (inactive) in the assay with ACHN; > 100 µM (inactive) in the assay with COLO 205; > 100 µM (inactive) with HL-60; > 100 µM (inactive) in the assay with HOP-62; 67.1 µM (inactive) with HT-29. Besides, the GI50 in the assay with KM12 is > 100 µM (inactive); in the assay with LOX IMVI, > 100 µM (inactive); in the assay on M14, 31.1 µM (inactive); in the assay on Malme-3M it was > 100 µM (inactive); with NCI-H226, > 100 µM (inactive); in the assay on OVCAR-3 it was 71.3 µM (inactive). In addition, the GI50 with RXF 393, in the assay on SK-MEL-28, with SR and in the assay on T47D was > 100 µM (inactive) in each case.

Turning to `COc1ccc(-c2nnc3n(C)c4ccccc4n3c2=O)cc1`, the GI50 in the assay on A549 is > 100 µM (inactive); in the assay on ACHN it was 63 µM (inactive); with CAKI-1 it was 76 µM (inactive); in the assay with COLO 205, > 100 µM (inactive); in the assay with HL-60, > 100 µM (inactive); in the assay on HOP-62, 14.5 µM (inactive). Further, the GI50 in the assay on HT-29, with KM12, in the assay on LOX IMVI, in the assay on M14, in the assay with MOLT-4 and with Malme-3M was > 100 µM (inactive) each time. Besides, the GI50 was > 100 µM (inactive) with NCI-H226; 31.1 µM (inactive) with RXF 393; > 100 µM (inactive) in the assay with SK-MEL-28; > 100 µM (inactive) in the assay with SR; > 100 µM (inactive) in the assay on T47D.
